Source: paper PMC6837341, “Evolutionarily conserved susceptibility of the mitochondrial respiratory chain to SDHI pesticides and its consequence on the impact of SDHIs on human cultured cells” (PLoS ONE, 2019)
Where two headings read alike, the source gives them in different places.

Key:
Assay type in all cases: biochemical
[1] = molecular target: T1, quinol cytochrome c reductase (CIII) (Lumbricus terrestris, UniProt Q34945); assay: QCCR activity, earthworm homogenate
T1 sequence (Q34945 1-379): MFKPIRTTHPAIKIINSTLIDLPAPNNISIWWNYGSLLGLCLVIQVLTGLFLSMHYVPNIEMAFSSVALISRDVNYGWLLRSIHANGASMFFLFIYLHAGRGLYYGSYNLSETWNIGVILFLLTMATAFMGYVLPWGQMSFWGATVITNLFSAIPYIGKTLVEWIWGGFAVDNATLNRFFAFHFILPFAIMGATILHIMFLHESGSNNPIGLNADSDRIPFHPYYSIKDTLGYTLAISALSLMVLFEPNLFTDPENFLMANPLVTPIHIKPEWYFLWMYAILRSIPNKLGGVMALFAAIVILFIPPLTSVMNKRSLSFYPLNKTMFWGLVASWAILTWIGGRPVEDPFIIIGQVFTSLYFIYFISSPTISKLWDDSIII
Experimental: L. terrestris individuals (n = 5) were collected manually in a household compost in Epernon (France 28230) and identified by the person (Paule Bénit) in charge of this compost. Before use, the worms were washed 5 times with 1× phosphate-buffered saline. A fresh homogenate was prepared from the segments located between the prostomium and clitellum of the 5 individuals. Tissues were placed in 500 μl of an ice-cold medium consisting of 20 mM Tris (pH 7.2), 0.25 M sucrose, 40 mM KCl, 2 mM EGTA, and 1 mg/ml BSA and homogenized using a 1-ml glass-glass Potter-Elvehjem homogenizer. Low-speed centrifugation at 1,500 g for 5 min allowed heavy debris to be discarded. The supernatant was distributed as 50-μl aliquots and kept frozen at -80°C.
(§1) RC enzyme activities were spectrophotometrically measured using a pseudo-double-wavelength spectrophotometer (Cary 60, Agilent). Malonate-sensitive succinate quinone dichlorophenolindophenol (DCPIP) reductase (SQDR), as an indicator of the activity of the isolated SDH enzyme (isolated CII), and glycerol-3-phosphate quinone DCPIP reductase (GQDR), as a measure of the activity of the isolated glycerol-3-phosphate dehydrogenase (G3PDH), were assayed as previously described. […] With this aim, we measured the malonate-sensitive succinate cytochrome c reductase (SDH+CIII), glycerol-3-phosphate cytochrome c reductase (G3PDH+CIII) and antimycin-sensitive quinol cytochrome c reductase (CIII) as previously described.
(§2) The effects of eight different SDHIs (up to 500 μM; S2 Fig) were determined on four different biological materials. Because IC50 are known to be affected by the actual absolute activity of the tested enzyme, these IC50 were quantified using similar levels of SDH enzyme activity during the assay. IC50 values were determined using the AAT Bioquest IC50 calculator tool (https://www.aatbio.com/tools/ic50-calculator).

[2] = molecular target: T2, glycerol-3-phosphate cytochrome c reductase (G3PDH+CIII) (Homo sapiens, UniProt P00156); assay: Glycerol-3-phosphate cytochrome c reductase (GCCR) activity, freeze-thawed HEK cells
T2 construct: the pellets were permeabilized by two freeze-thaw cycles before enzyme assays; endogenous in cells; host or cells: HEK293, freeze-thawed cell pellets
Experimental: The cells were grown in T75 flasks using 10 ml Dulbecco’s modified Eagle's minimal essential medium (DMEM) either containing 1 or 4.5 g/l glucose, 4 mM glutamine (glutamax; Gibco Thermo Fisher Scientific, MA), 2 mM pyruvate and 200 μM uridine (permissive medium, thereafter referred as GlucoMax) or lacking glucose, pyruvate and uridine but containing 4 mM glutamine (nonpermissive medium, thereafter referred as MitoMax; S1 Table). All media were supplemented with 10% fetal calf serum and 100 U/mL each penicillin and streptomycin. HEK293 human embryonic kidney cells were cultured in DMEM containing 4.5 g/L glucose, 4 mM glutamine, 10% fetal calf serum, 200 μM uridine, 2 mM pyruvate, and 100 U/mL each penicillin and streptomycin [9]. Cell pellets (1,500 g for 5 min) were kept frozen (-80°C), and for biochemical studies, the pellets were permeabilized by two freeze-thaw cycles before enzyme assays.
RC enzyme activities were spectrophotometrically measured using a pseudo-double-wavelength spectrophotometer (Cary 60, Agilent). Malonate-sensitive succinate quinone dichlorophenolindophenol (DCPIP) reductase (SQDR), as an indicator of the activity of the isolated SDH enzyme (isolated CII), and glycerol-3-phosphate quinone DCPIP reductase (GQDR), as a measure of the activity of the isolated glycerol-3-phosphate dehydrogenase (G3PDH), were assayed as previously described. To study the effect of SDHIs on the RC, we had to take into consideration the fact that these inhibitors act through binding to quinone-binding sites in the RC. Accordingly, we observed that the extent of the inhibitory effects of these substances varies with the addition of exogenous quinones (Fig 1). […] With this aim, we measured the malonate-sensitive succinate cytochrome c reductase (SDH+CIII), glycerol-3-phosphate cytochrome c reductase (G3PDH+CIII) and antimycin-sensitive quinol cytochrome c reductase (CIII) as previously described.
as §2

[3] = molecular target: T3, quinol cytochrome c reductase (CIII) (Botrytis cinerea, UniProt Q18ND9); assay: QCCR activity, Botrytis cinerea mitochondria
T3 sequence (Q18ND9 1-391): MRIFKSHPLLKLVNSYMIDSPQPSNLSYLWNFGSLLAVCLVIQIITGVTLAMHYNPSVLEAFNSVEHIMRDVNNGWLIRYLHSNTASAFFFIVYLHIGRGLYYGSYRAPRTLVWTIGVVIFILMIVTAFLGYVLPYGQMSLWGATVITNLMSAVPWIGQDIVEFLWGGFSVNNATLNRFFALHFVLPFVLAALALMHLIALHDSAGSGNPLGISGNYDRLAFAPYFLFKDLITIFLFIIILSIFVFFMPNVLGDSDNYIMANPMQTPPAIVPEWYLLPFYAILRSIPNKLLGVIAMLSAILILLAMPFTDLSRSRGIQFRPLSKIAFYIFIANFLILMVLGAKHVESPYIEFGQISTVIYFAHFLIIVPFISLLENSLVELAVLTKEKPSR
Experimental: The mixed population of B. cinerea fungi used in this study was kindly provided by Dr. Joelle Dupont (Museum National d’Histoire Naturelle, Paris, France). Conidia from Botrytis cinerea were obtained from 15–30 d cultures grown on malt medium agar plates. Mycelial colonies were prepared by seeding conidia from 10 colonies in liquid medium (10 g of glucose, 2 g of KH2PO4, 0.5 g of MgSO47H2O, 1 g of (NH4)2SO4, 2 g of yeast extract and deionized water up to 1 l, pH 6.2). Incubation was performed at 23°C until hyphae totally covered the surface of the bottle. The hyphae (9-cm-diameter disks) were harvested, washed twice with refrigerated distilled water and finally with mitochondria extraction medium containing 20 mM Tris (pH 7.2), 0.25 M sucrose, 40 mM KCl, 2 mM EGTA, 1 mg/ml BSA, and no cysteine. The hyphae were suspended in 150 ml of extraction medium, cut in small pieces (1 cm^2) and then disrupted at high speed for 1×2 sec and at low speed for 2×3 sec using a MultiMoulinex mixer (Moulinex, France). The suspension of disrupted hyphae was then filtered through two layers of nylon cloth (clearance 150 μm). The cloth was washed with 50 ml of extraction medium. After low-speed centrifugation (700 g for 15 min), the mitochondria were collected at 10,000 g for 20 min. The pellet was suspended in 250 μl of extraction medium, aliquoted (± 30 μl) and kept frozen at -80°C.
as §1, §2

[4] = read-out: IC50 QCCR, CIII values only indicative
[5] = Homo sapiens, freeze-thawed HEK cells, read-out: IC50 GCCR
[6] = CIII values only indicative, read-out: IC50 QCCR

SMILES | IC50 [1, 4] | IC50 [2] | IC50 [3, 4] | IC50 [2, 5] | IC50 [1, 6] | IC50 [3, 6]
CC(C)CC(C)c1sccc1NC(=O)c1cn(C)nc1C(F)(F)F (stereo not drawn) [Penthiopyrad, penthiopyrad] | 297 µM | 211 µM | 105 µM |  |  | 
CC(C)Oc1cccc(NC(=O)c2ccccc2C(F)(F)F)c1 [Flutolanil, flutolanil] | > 500 µM |  | > 500 µM | > 500 µM |  | 
Cn1cc(C(=O)Nc2ccc(F)cc2-c2ccc(Cl)c(Cl)c2)c(C(F)F)n1 [Bixafen, bixafen] |  |  |  | 21.1 µM | ≥ 500 µM | 22.2 µM
O=C(Nc1ccccc1-c1ccc(Cl)cc1)c1cccnc1Cl [Boscalid, boscalid] | > 500 µM | > 500 µM | > 500 µM |  |  | 
CC(C)C1C2CCC1c1c(NC(=O)c3cn(C)nc3C(F)F)cccc12 (stereo not drawn) [Isopyrazam, isopyrazam] |  |  |  | 51.3 µM | 76 µM | 14.2 µM
Cn1cc(C(=O)Nc2ccccc2-c2cc(F)c(F)c(F)c2)c(C(F)F)n1 [Fluxapyroxad, fluxapyroxad] |  |  |  | > 500 µM | > 500 µM | 67 µM
Cc1nn(C)c(F)c1C(=O)Nc1ccccc1C(C)CC(C)C (stereo not drawn) [Penflufen, penflufen] |  |  |  | > 500 µM | > 500 µM | 433 µM
